# The source made the active and inactive calls. No cut-off for these calls is given here.
# Columns and labels:
# Enterococcus [1] = experiment: Antibacterial activity against Enterococcus NR 31903 assessed as reduction in bacterial growth incubated for 16 to 18 hrs by broth microdilution method; assay type: functional; details: time 16-18 hrs
# Pseudomonas aeruginosa = experiment: Antibacterial activity against Pseudomonas aeruginosa ATCC 27853 assessed as reduction in bacterial growth incubated for 16 to 18 hrs by broth microdilution method; assay type: functional; details: time 16-18 hrs
# Escherichia coli = experiment: Antibacterial activity against Escherichia coli ATCC 25922 assessed as reduction in bacterial growth incubated for 16 to 18 hrs by broth microdilution method; assay type: functional; details: time 16-18 hrs
# [2] = Cytotoxicity against African green monkey Vero cells after 72 hrs by MTT assay; assay type: toxicity, cell-based; details: chlorocebus sabaeus
# Acinetobacter baumannii = experiment: Antibacterial activity against Acinetobacter baumannii BAA 1605 assessed as reduction in bacterial growth incubated for 16 to 18 hrs in presence of PMBN by broth microdilution method; assay type: functional; details: time 16-18 hrs
# Staphylococcus aureus [3] = experiment: Antibacterial activity against gentamycin/linezolid/methicillin/trimeth/sulfa resistant Staphylococcus aureus NRS 119 assessed as reduction in bacterial growth incubated for 16 to 18 hrs by broth microdilution method; assay type: functional; details: time 16-18 hrs
# Staphylococcus aureus [4] = experiment: Antibacterial activity against chloramphenicol resistant Staphylococcus aureus NRS 129 assessed as reduction in bacterial growth incubated for 16 to 18 hrs by broth microdilution method; assay type: functional; details: time 16-18 hrs
# Staphylococcus aureus [5] = experiment: Antibacterial activity against methicillin/meropenem resistant Staphylococcus aureus NRS 194 assessed as reduction in bacterial growth incubated for 16 to 18 hrs by broth microdilution method; assay type: functional; details: time 16-18 hrs
# Enterococcus [6] = experiment: Antibacterial activity against vancomycin sensitive/methicillin resistant Enterococcus NR 31885 assessed as reduction in bacterial growth incubated for 16 to 18 hrs by broth microdilution method; assay type: functional; details: time 16-18 hrs
# Enterococcus [7] = experiment: Antibacterial activity against vancomycin sensitive/methicillin resistant Enterococcus NR 31887 assessed as reduction in bacterial growth incubated for 16 to 18 hrs by broth microdilution method; assay type: functional; details: time 16-18 hrs
# Staphylococcus aureus [8] = experiment: Bactericidal activity against Staphylococcus aureus ATCC 29213 assessed as reduction in log10 CFU at 10 times MIC after 5 mins by time kill assay; assay type: functional
# Staphylococcus aureus [9] = experiment: Bactericidal activity against Staphylococcus aureus ATCC 29213 assessed as reduction in log10 CFU at 1 time MIC after 1 hr by time kill assay; assay type: functional
# Staphylococcus aureus [10] = experiment: Synergistic antibacterial activity against Staphylococcus aureus ATCC 29213 assessed as reduction in bacterial growth incubated for 24 hrs in presence of gentamycin by checkerboard method; assay type: functional
# Staphylococcus aureus [11] = experiment: Synergistic antibacterial activity against Staphylococcus aureus ATCC 29213 assessed as reduction in bacterial growth incubated for 24 hrs in presence of daptomycin by checkerboard method; assay type: functional
# Staphylococcus aureus [12] = experiment: Synergistic antibacterial activity against Staphylococcus aureus ATCC 29213 assessed as reduction in bacterial growth incubated for 24 hrs in presence of levofloxacin by checkerboard method; assay type: functional
# Staphylococcus aureus [13] = experiment: Synergistic antibacterial activity against Staphylococcus aureus ATCC 29213 assessed as reduction in bacterial growth incubated for 24 hrs in presence of ceftazidime by checkerboard method; assay type: functional
# Staphylococcus aureus [14] = experiment: Synergistic antibacterial activity against Staphylococcus aureus ATCC 29213 assessed as reduction in bacterial growth incubated for 24 hrs in presence of rifampicin by checkerboard method; assay type: functional
# Staphylococcus aureus [15] = experiment: Synergistic antibacterial activity against Staphylococcus aureus ATCC 29213 assessed as reduction in bacterial growth incubated for 24 hrs in presence of vancomycin by checkerboard method; assay type: functional
# Staphylococcus aureus [16] = experiment: Synergistic antibacterial activity against Staphylococcus aureus ATCC 29213 at 1 time MIC after 24 hrs in presence of linezolid by time kill assay; assay type: functional
# Staphylococcus aureus [17] = experiment: Post antibiotic effect against Staphylococcus aureus ATCC 29213 assessed as time required for 1 log10 increase in CFU at 1 time MIC incubated for 1 hr followed by replacement with drug free medium and measured every 1 hr (reference value: 2 hrs); assay type: functional
# Staphylococcus aureus [18] = experiment: Post antibiotic effect against Staphylococcus aureus ATCC 29213 assessed as time required for 1 log10 increase in CFU at 10 times MIC incubated for 1 hr followed by replacement with drug free medium and measured every 1 hr (reference value: 2 hrs); assay type: functional
# Staphylococcus aureus [19] = experiment: Bactericidal activity against Staphylococcus aureus ATCC 29213 assessed as increase in dead bacterial cells at 2.5 times MIC after 30 mins by confocal laser scanning microscopy analysis; assay type: functional, organism-based
# Staphylococcus aureus [20] = experiment: Bactericidal activity against Staphylococcus aureus ATCC 29213 assessed as visible cell destruction at 2.5 times MIC after 30 mins by scanning electron microscopy analysis; assay type: functional, organism-based
# Staphylococcus aureus [21] = experiment: Bactericidal activity against Staphylococcus aureus ATCC 29213 assessed as decrease in intracellular ATP level after 1 hr by ATP bioluminescence assay; assay type: functional, organism-based; details: DDE = dose-dependent effect
# Staphylococcus aureus [22] = experiment: Antibacterial activity against Staphylococcus aureus ATCC 29213 infected in BALB/c mouse neutropenic thigh infection model assessed as reduction in thigh bacterial load at 50 mg/kg, ip pre-infected with bacteria for 3 hrs followed by compound addition twice at a interval of 3 hrs and measured after 24 hrs; assay type: functional
# Staphylococcus aureus [23] = experiment: Synergistic antibacterial activity against Staphylococcus aureus ATCC 29213 assessed as fractional inhibitory concentration incubated for 24 hrs in presence of linezolid by checkerboard method; assay type: functional
# Staphylococcus aureus [24] = experiment: Synergistic antibacterial activity against Staphylococcus aureus ATCC 29213 assessed as fractional inhibitory concentration incubated for 24 hrs in presence of daptomycin by checkerboard method; assay type: functional
# Staphylococcus aureus [25] = experiment: Synergistic antibacterial activity against Staphylococcus aureus ATCC 29213 assessed as fractional inhibitory concentration incubated for 24 hrs in presence of minocycline by checkerboard method; assay type: functional
# Staphylococcus aureus [26] = experiment: Synergistic antibacterial activity against Staphylococcus aureus ATCC 29213 assessed as fractional inhibitory concentration incubated for 24 hrs in presence of vancomycin by checkerboard method; assay type: functional
# Staphylococcus aureus [27] = experiment: microbe, parasite or virus in culture; details: ATCC 29213
# Description: Antibacterial activity against Staphylococcus aureus ATCC 29213 assessed as reduction in bacterial growth incubated for 16 to 18 hrs by broth microdilution method
smiles,measurement,setting,value
COc1cc2oc(-c3ccc(O)cc3O)c(CC=C(C)C)c(=O)c2c(O)c1/C=C/C(C)C [ARTOCARPIN],MIC,Enterococcus [1],2 µg/mL
same,MIC,Pseudomonas aeruginosa,> 128 µg/mL
same,MIC,Escherichia coli,> 128 µg/mL
same,CC50 at 72 h,[2],80 µg/mL
same,MIC,Acinetobacter baumannii,4 µg/mL
same,MIC,Staphylococcus aureus [3],4 µg/mL
same,MIC,Staphylococcus aureus [4],4 µg/mL
same,MIC,Staphylococcus aureus [5],4 µg/mL
same,MIC,Enterococcus [6],2 µg/mL
same,MIC,Enterococcus [7],2 µg/mL
same,Activity,Staphylococcus aureus [8],2.07 log10CFU/ml
same,Activity,Staphylococcus aureus [9],3.6 log10CFU/ml
same,MIC,Staphylococcus aureus [10],0.06 µg/mL
same,MIC,Staphylococcus aureus [11],1 µg/mL
same,MIC,Staphylococcus aureus [12],2 µg/mL
same,MIC,Staphylococcus aureus [13],2 µg/mL
same,MIC,Staphylococcus aureus [14],2 µg/mL
same,MIC,Staphylococcus aureus [15],2 µg/mL
same,Activity,Staphylococcus aureus [16],4 log10CFU/ml
same,Time,Staphylococcus aureus [17],5 h
same,Time,Staphylococcus aureus [18],24 h
same,Activity,Staphylococcus aureus [19],Active
same,Activity,Staphylococcus aureus [20],Active
same,Activity,Staphylococcus aureus [21],Dde
same,Activity,Staphylococcus aureus [22],0.6 log10CFU/g
same,FIC,Staphylococcus aureus [23],0.25
same,FIC,Staphylococcus aureus [24],0.25
same,FIC,Staphylococcus aureus [25],0.25
same,FIC,Staphylococcus aureus [26],0.5
same,MIC,Staphylococcus aureus [27],2 µg/mL

# Reference: ChEMBL document CHEMBL5137134, “Developing the Natural Prenylflavone Artocarpin from Artocarpus hirsutus as a Potential Lead Targeting Pathogenic, Multidrug-Resistant Staphylococcus aureus, Persisters and Biofilms with No Detectable Resistance” (J Nat Prod, 2022)
